Source: PMC6380468, “Investigations on small molecule inhibitors targeting the histone H3K4 tri-methyllysine binding PHD-finger of JmjC histone demethylases” (Bioorganic & Medicinal Chemistry, 2018)

Tests used:
KDM7A(PHD) = molecular target: T1, KDM7A(PHD) (Homo sapiens, UniProt Q6ZMT4); assay: AlphaScreen displacement of H3K4me3-Bn from His-KDM7A(PHD); format: binding; conditions: AlphaScreen; 6.25 nM KDM7A(PHD) and 25 nM peptide; n ≥ 3; read-out: IC50 for displacement of H3K4me3-Bn from His-KDM7A(PHD)
T1 construct: made in house
T1 sequence (Q6ZMT4 37-88 limits assumed): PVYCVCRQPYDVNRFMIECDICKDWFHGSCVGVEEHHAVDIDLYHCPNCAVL
Procedure: (§1) For peptide displacement assays, 5 µL of the inhibitor dilution series (at a concentration of 4% DMSO in AlphaScreen assay buffer) was pre-incubated with 5 µL of the protein at RT for 15 minutes. Peptide solution (5 µL) was added and incubated for 30 minutes at RT, followed by the addition of 5 µL of a mixture of AlphaScreen Streptavidin donor beads and Nickel Chelate acceptor beads in AlphaScreen assay buffer (20 µg/mL final). The contents were incubated for 60-120 minutes at RT in the dark, followed by measurement of luminescence on a BMG Labtech Pherastar plate reader (Software Ver. 5.30 R3, Firmware Ver. 1.21). The data was plotted in Prism Ver 7.01 (GraphPad Software, Inc.) and fitted to a Log(inhibitor) v/s response – variable slope model in order to obtain IC50 values.

KDM7B (PHD-JmjC) [1] = molecular target: T2, KDM7B (PHD-JmjC) (Homo sapiens, UniProt Q9UPP1); assay: MALDI-TOF MS H3K9me2 demethylation assay, KDM7B(PHD-JmjC); format: biochemical; conditions: at 100 µM; MALDI-TOF MS; substrate H3(1–5)K4me3K9me2; read-out: KDM7B (PHD-JmjC) (Catalytic), inhibition of H3K9me2 demethylation
T2 construct: A dual-domain construct of KDM7A/B(PHD-JmjC), consisting of a JmjC domain in addition to the PHD-finger; His; made in house
T2 sequence (Q9UPP1 37-483 limits assumed): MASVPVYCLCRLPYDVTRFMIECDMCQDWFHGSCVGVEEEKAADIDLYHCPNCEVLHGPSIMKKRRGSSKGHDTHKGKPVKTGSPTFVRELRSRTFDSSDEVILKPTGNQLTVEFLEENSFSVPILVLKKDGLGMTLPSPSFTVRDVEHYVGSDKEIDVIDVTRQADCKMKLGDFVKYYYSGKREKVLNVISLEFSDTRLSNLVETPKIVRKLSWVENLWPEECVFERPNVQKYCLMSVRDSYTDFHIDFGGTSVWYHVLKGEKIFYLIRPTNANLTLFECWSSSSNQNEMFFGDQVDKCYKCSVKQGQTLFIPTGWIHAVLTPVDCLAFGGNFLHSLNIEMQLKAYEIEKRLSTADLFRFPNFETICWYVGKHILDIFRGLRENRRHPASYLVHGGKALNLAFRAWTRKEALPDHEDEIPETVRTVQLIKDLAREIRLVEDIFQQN
Procedure: H3(1–15)K9me2 and H3(1–5)K4me3K9me2 were used as substrates for KDM7A(PHD-JmjC) and KDM7B(PHD-JmjC), respectively. […] For KDM7B(PHD-JmjC), inhibition was most pronounced for 1a (95%) and 2a (89%) whilst others inhibited more weakly (Table 4).
For KDM7(PHD-JmjC) assays, 2.5 µM enzyme was used, with 5 µM H3(1-15)K9me2 peptide substrate for KDM7A or H3(1-15)K4me3K9me2 for KDM7B. Final concentrations were: 1mM ascorbate, 50 µM (NH4)2Fe(II)(SO4)2 and 200 µM 2OG. The mixture was quenched using formic acid after 10 minutes (KDM7A) or 5 minutes (KDM7B).

His-KDM5A(PHD3) = molecular target: T3, His-KDM5A(PHD3) (Homo sapiens, UniProt P29375); assay: AlphaScreen displacement assay, H3K4me3-Bn from His-KDM5A(PHD3); format: binding; conditions: AlphaScreen; 25 nM protein and 25 nM peptide; average ± StdDev, n ≥ 3; NM = not measurable within the solubility range; read-out: IC50 for displacement of H3K4me3-Bn from His-KDM5A(PHD3)
T3 construct: KDM5A(PHD3) (1542 – 1660), encoded by a pGTLV2 vector; made in house; host or cells: E. coli Rosetta 2(DE3)pLysS
T3 sequence (P29375 1542-1660): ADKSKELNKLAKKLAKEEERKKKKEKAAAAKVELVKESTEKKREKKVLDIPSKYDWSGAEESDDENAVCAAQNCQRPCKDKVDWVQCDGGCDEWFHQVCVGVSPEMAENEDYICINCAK
Procedure: AlphaScreen is a homogenous bead-based assay used to study protein-protein interactions.[28] […] AlphaScreen beads were then added and incubated for 1 h. Changes in the AlphaScreen signals with increasing inhibitor concentrations were then measured to quantify the level of KDM5A(PHD3) and H3K4me3 binding, and IC50 values were determined.
His-tagged PHD finger constructs and H3K4me3-Bn peptides were diluted into AlphaScreen assay buffer (50mM HEPES, 150mM NaCl, 0.1% BSA, 0.01% Tween20, pH 7.5). An 8-point 1:2 dilution series was made for both protein and peptide. With a multichannel pipette (LTS P10), 5 µL protein was dispensed into 8 columns of a 384-well plate, followed by 5 µL of 4% DMSO in AlphaScreen assay buffer. The mixture was incubated at room temperature for 15 minutes, followed by dispensing 5 µL peptide across 8 rows of the 384-well plate, forming a cross-gradient of protein and peptide. The contents were incubated for 30 minutes at room temperature, followed by the addition of 5 µL of a mixture of AlphaScreen Streptavidin donor beads and Nickel Chelate acceptor beads in AlphaScreen assay buffer (20 µg/mL final). The samples were incubated for 60-120 minutes at room temperature in the dark, followed by measurement of luminescence on a BMG Labtech Pherastar plate reader (Software Ver. 5.30 R3, Firmware Ver. 1.21). The data was plotted in Prism Ver 7.01 (GraphPad Software, Inc.) and fitted to a linear model in order to determine the optimal concentration of protein and peptide within the linear signal range for each reader domain.
as §1

KDM7B (PHD-JmjC) [2] = molecular target: T2, KDM7B (PHD-JmjC); assay: AlphaScreen displacement of H3K4me3-Bn from His-KDM7B(PHD-JmjC); format: binding; conditions: AlphaScreen displacement of H3K4me3-Bn; n = 3; NI = No inhibition seen at 100 μM; read-out: IC50 KDM7B (PHD-JmjC) (Displacement)
Procedure: (§2) A dual-domain construct of KDM7A/B(PHD-JmjC), consisting of a JmjC domain in addition to the PHD-finger (Fig. 1B), was used to test for allosteric inhibition through binding at the PHD-finger.
as §1

KDM7A (PHD-JmjC) = KDM7A (PHD-JmjC) (Homo sapiens, UniProt Q6ZMT4); assay: AlphaScreen displacement of H3K4me3-Bn from His-KDM7A(PHD-JmjC); format: binding; conditions: AlphaScreen displacement of H3K4me3-Bn; n = 3; NI = No inhibition seen at 100 μM; read-out: IC50 KDM7A (PHD-JmjC) (Displacement)
Chain of KDM7A (PHD-JmjC) (Q6ZMT4 37-386 limits assumed): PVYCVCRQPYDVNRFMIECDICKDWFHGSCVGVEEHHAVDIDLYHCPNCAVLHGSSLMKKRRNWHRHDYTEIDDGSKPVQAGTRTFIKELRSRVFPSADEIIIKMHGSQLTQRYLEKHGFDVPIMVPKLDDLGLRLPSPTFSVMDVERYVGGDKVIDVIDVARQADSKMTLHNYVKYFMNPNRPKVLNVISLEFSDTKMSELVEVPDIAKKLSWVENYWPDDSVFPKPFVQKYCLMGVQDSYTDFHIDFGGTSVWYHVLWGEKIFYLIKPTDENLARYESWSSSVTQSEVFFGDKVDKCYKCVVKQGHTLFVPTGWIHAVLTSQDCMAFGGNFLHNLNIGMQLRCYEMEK
Procedure: as §2, §1

[3] = AlphaScreen biotin-His6 counterscreen; conditions: AlphaScreen interference counterscreen with biotin-His6; unit inferred; DNC = data did not converge to binding model; NM = not measurable within the solubility range
KDM7C(PHD) = molecular target: T4, KDM7C(PHD) (Homo sapiens, UniProt O75151); assay: AlphaScreen displacement of H3K4me3-Bn from His-KDM7C(PHD); format: binding; conditions: AlphaScreen; 25 nM KDM7C(PHD) and 6.25 nM peptide; n ≥ 3; read-out: IC50 for displacement of H3K4me3-Bn from His-KDM7C(PHD)
T4 construct: made in house
T4 sequence (O75151 5-56 limits assumed): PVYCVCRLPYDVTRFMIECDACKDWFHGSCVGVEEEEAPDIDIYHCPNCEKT
Procedure: as §1

| Structure (SMILES) | IC50 (KDM7A(PHD)) [µM] | inhibition at 100 µM (KDM7B (PHD-JmjC) [1]) [%] | IC50 (His-KDM5A(PHD3)) [µM] | IC50 (KDM7B (PHD-JmjC) [2]) [µM] | IC50 (KDM7A (PHD-JmjC)) [µM] | IC50 [3] [µM] | IC50 (KDM7C(PHD)) [µM] |
| --- | --- | --- | --- | --- | --- | --- | --- |
| CCCCc1oc2ccccc2c1C(=O)c1ccc(OCCCN(C)C)cc1 [Compound 1a, (2-Butylbenzofuran-3-yl)(4-(3-(dimethylamino)propoxy)phenyl)methanone] | 333 ± 39 | 95 | 166 ± 20 | > 100 | 295 ± 48 | 484 ± 82 | 158 ± 30 |
| CCCCc1oc2ccccc2c1C(=O)c1ccc(OCCC[N+](C)(C)C)cc1.[I-] [Compound 2a, 3-(4-(2-Butylbenzofuran-3-carbonyl)phenoxy)-N,N,N-trimethylpropan-1-aminium iodide] | 86 ± 9 | 89 | 340 ± 44 | 120 ± 32 | 149 ± 32 | 4300 ± 163 | 579 ± 87 |
